Test results as given in patent US20240228555A9, “ANTIMICROBIAL PEPTIDOMIMETICS” (Basilea Pharmaceutica International AG, Allschwil, priority 2020, published 2024).
Where a SMILES comes first, the peptide text is derived from it.

Legend:
[1] = system: Klebsiella pneumoniae SSI3010; conditions: SSI3010
Experimental: (§1) Lyophilized peptides were weighed on a Microbalance (Mettler MT5) and dissolved in sterile water to a final concentration of 1 mg/mL. Stock solutions were kept at +4° C., light protected.
(§2) Colonies of the microorganisms were diluted in saline (0.85%, NaCl) and adjusted using a McFarland reader (bioMérieux SA, Marcy-l'Etoile, France) to 0.5 McFarland standard. Subsequently, the bacterial suspension was diluted in Mueller-Hinton II (MHII, cation adjusted) broth to give approximately 5×10^5 colony forming units (CFU/mL).
(§3) 10^6 colony forming units (CFU)/mL. Aliquots (90 μl) of inoculate were added to 10 μl of water+P-80 (Polysorbate 80, 0.002% final concentration) containing the peptide in serial two-fold dilutions at 10 fold final concentration. The following microorganisms were used to determine antibiotic selectivity of the peptides: Escherichia coli ATCC 25922, Escherichia coli MCR-1 Af 45 and Klebsiella pneumoniae SSI3010.

[2] = system: Escherichia coli ATCC 25922; conditions: ATCC 25922
Experimental: as §1, §2, §3

[3] = system: Escherichia coli MCR-1 Af 45; conditions: Mueller-Hinton broth II, no visible growth after 18-20 hours at 35° C.
Experimental: as §1, §2, §3

[4] = system: human red blood cells (hRBC); assay type: cell-based; conditions: red cells of human, 1 h, 0.2 g/L
Experimental: as §1
The peptides were tested for their hemolytic activity against human red blood cells (hRBC). Fresh hRBC were washed three times with phosphate buffered saline (PBS) and centrifuged for 5 min at 3000×g. Compounds (200 μg/mL) were incubated with 20% hRBC (v/v) for 1 h at 37° C. and shaking at 300 rpm. A value of 0% and 100% cell lyses, respectively, was determined by incubation of hRBC in the presence of PBS and 2.5% Triton X-100 in H2O, respectively. The samples were centrifuged, the supernatants were 8-fold diluted in PBS buffer and the optical densities (OD) were measured at 540 nm. The 100% lyses value (OD540H2O) gave an OD540 of approximately 0.5-1.0.
Percent hemolysis was calculated as follows: (OD540peptide/OD540H2O)×100%.

Structure (SMILES) | Klebsiella pneumoniae SSI3010 MIC [1] [µg/mL] | Escherichia coli ATCC 25922 MIC [2] [µg/mL] | Escherichia coli MCR-1 Af 45 MIC [3] [µg/mL] | Hemolysis at 0.2 g/L [4] [%]
CC[C@H](C)[C@H](NC(=O)[C@@H]1CCCN1C(=O)[C@@H](N)C(C)C)C(=O)N[C@H](C(=O)N[C@@H](Cc1ccc(O)cc1)C(=O)N[C@@H]1C(=O)N[C@@H](CC(N)=O)C(=O)N[C@@H](CCCNC(=N)N)C(=O)N[C@@H](CCN)C(=O)N[C@@H]([C@@H](C)O)C(=O)N[C@H](CCN)C(=O)N[C@@H](CCCCN)C(=O)N[C@H](C(=O)N[C@@H](CCN)C(=O)N[C@@H](CCCNC(=N)N)C(=O)N[C@@H](Cc2ccc(O)cc2)C(=O)O)CSSC1(C)C)[C@@H](C)O [Example 80, Val-Pro-Ile-Thr-Tyr-Pen-Asn-Arg-Dab-Thr-^DDab-Lys-Cys-Dab-Arg-Tyr] (HELM PEPTIDE1{V.P.I.T.Y.[Pen].N.R.[Dab].T.[NCC[C@@H](N[*:1])C(=O)[*:2]].K.C.[Dab].R.Y}$PEPTIDE1,PEPTIDE1,6:R3-13:R3$$$V2.0) | 0.25 | 0.125 | 0.0625 | <1
CC[C@H](C)[C@H](NC(=O)[C@@H]1C[C@@H](O)CN1C(=O)[C@@H](N)C(C)C)C(=O)N[C@@H](CCN)C(=O)N[C@@H](Cc1ccc(O)cc1)C(=O)N[C@@H]1C(=O)N[C@@H](CC(N)=O)C(=O)N[C@@H](CCCNC(=N)N)C(=O)N[C@@H](CCN)C(=O)N[C@@H](CO)C(=O)N[C@H](CCN)C(=O)N[C@@H](CCCCN)C(=O)N[C@H](C(=O)N[C@@H](CCN)C(=O)N[C@@H](CCN)C(=O)N[C@@H](Cc2ccc(O)cc2)C(=O)O)CSSC1(C)C [Example 81, Val-Hyp-Ile-Dab-Tyr-Pen-Asn-Arg-Dab-Ser-^DDab-Lys-Cys-Dab-Dab-Tyr] (HELM PEPTIDE1{V.[Hyp].I.[Dab].Y.[Pen].N.R.[Dab].S.[NCC[C@@H](N[*:1])C(=O)[*:2]].K.C.[Dab].[Dab].Y}$PEPTIDE1,PEPTIDE1,6:R3-13:R3$$$V2.0) | 0.5 | 0.125 | 0.0625 | <1
CC[C@H](C)[C@H](NC(=O)[C@@H](NC(=O)[C@@H]1C[C@@H](O)CN1C(=O)[C@@H](N)C(C)C)[C@@H](C)CC)C(=O)N[C@@H](Cc1ccc(O)cc1)C(=O)N[C@@H]1C(=O)N[C@@H](CC(N)=O)C(=O)N[C@@H](CCCNC(=N)N)C(=O)N[C@@H](CCCCN)C(=O)N[C@@H]([C@@H](C)O)C(=O)N[C@H](CCN)C(=O)N[C@@H](CCCCN)C(=O)N[C@H](C(=O)N[C@@H](CCCCN)C(=O)N[C@@H](CCCNC(=N)N)C(=O)N[C@@H](Cc2ccc(O)cc2)C(=O)O)CSSC1(C)C [Example 82, Val-Hyp-Ile-Ile-Tyr-Pen-Asn-Arg-Lys-Thr-^DDab-Lys-Cys-Lys-Arg-Tyr] (HELM PEPTIDE1{V.[Hyp].I.I.Y.[Pen].N.R.K.T.[NCC[C@@H](N[*:1])C(=O)[*:2]].K.C.K.R.Y}$PEPTIDE1,PEPTIDE1,6:R3-13:R3$$$V2.0) | 0.25 | 0.125 | 0.125 | <1
CC[C@H](C)[C@H](NC(=O)[C@@H](NC(=O)[C@@H]1C[C@@H](O)CN1C(=O)[C@@H](N)C(C)C)[C@@H](C)CC)C(=O)N[C@@H](Cc1ccc(O)cc1)C(=O)N[C@@H]1C(=O)N[C@@H](CC(N)=O)C(=O)N[C@@H](CCCNC(=N)N)C(=O)N[C@@H](CCN)C(=O)N[C@@H]([C@@H](C)O)C(=O)N[C@H](CCN)C(=O)N[C@@H]([C@@H](C)CC)C(=O)N[C@H](C(=O)N[C@@H](CCN)C(=O)N[C@@H](CCN)C(=O)N[C@@H](Cc2ccc(O)cc2)C(=O)O)CSSC1(C)C [Example 83, Val-Hyp-Ile-Ile-Tyr-Pen-Asn-Arg-Dab-Thr-^DDab-Ile-Cys-Dab-Dab-Tyr] (HELM PEPTIDE1{V.[Hyp].I.I.Y.[Pen].N.R.[Dab].T.[NCC[C@@H](N[*:1])C(=O)[*:2]].I.C.[Dab].[Dab].Y}$PEPTIDE1,PEPTIDE1,6:R3-13:R3$$$V2.0) | 0.5 | 0.25 | 0.25 | <1
CC[C@H](C)[C@H](NC(=O)[C@@H](NC(=O)[C@@H]1C[C@@H](O)CN1C(=O)[C@@H](N)C(C)C)[C@@H](C)CC)C(=O)N[C@@H](Cc1ccc(O)cc1)C(=O)N[C@@H]1C(=O)N[C@@H](CC(N)=O)C(=O)N[C@@H](CCCNC(=N)N)C(=O)N[C@@H](CCN)C(=O)N[C@@H](CO)C(=O)N[C@H](CCN)C(=O)N[C@@H]([C@@H](C)CC)C(=O)N[C@H](C(=O)N[C@@H](CCN)C(=O)N[C@@H](CCN)C(=O)N[C@@H](Cc2ccc(O)cc2)C(=O)O)CSSC1(C)C [Example 84, Val-Hyp-Ile-Ile-Tyr-Pen-Asn-Arg-Dab-Ser-^DDab-Ile-Cys-Dab-Dab-Tyr] (HELM PEPTIDE1{V.[Hyp].I.I.Y.[Pen].N.R.[Dab].S.[NCC[C@@H](N[*:1])C(=O)[*:2]].I.C.[Dab].[Dab].Y}$PEPTIDE1,PEPTIDE1,6:R3-13:R3$$$V2.0) | 0.5 | 0.25 | 0.25 | <1
CC[C@H](C)[C@H](NC(=O)[C@@H](NC(=O)[C@@H]1C[C@@H](O)CN1C(=O)[C@@H](N)C(C)C)[C@@H](C)CC)C(=O)N[C@@H](Cc1ccc(O)cc1)C(=O)N[C@@H]1C(=O)N[C@@H](CC(N)=O)C(=O)N[C@@H](CCCNC(=N)N)C(=O)N[C@@H](CCN)C(=O)N[C@@H]([C@@H](C)O)C(=O)N[C@H](CCN)C(=O)N[C@@H](CCCCN)C(=O)N[C@H](C(=O)N[C@@H](CCN)C(=O)N[C@@H](CCCN)C(=O)N[C@@H](Cc2ccc(O)cc2)C(=O)O)CSSC1(C)C [Example 85, Val-Hyp-Ile-Ile-Tyr-Pen-Asn-Arg-Dab-Thr-^DDab-Lys-Cys-Dab-Orn-Tyr] (HELM PEPTIDE1{V.[Hyp].I.I.Y.[Pen].N.R.[Dab].T.[NCC[C@@H](N[*:1])C(=O)[*:2]].K.C.[Dab].[Orn].Y}$PEPTIDE1,PEPTIDE1,6:R3-13:R3$$$V2.0) | 0.25 | 0.125 | 0.0625 | <1
CC[C@H](C)[C@H](NC(=O)[C@@H](NC(=O)[C@@H]1C[C@@H](O)CN1C(=O)[C@@H](N)C(C)C)[C@@H](C)CC)C(=O)N[C@@H](Cc1ccc(O)cc1)C(=O)N[C@@H]1C(=O)N[C@@H](CC(N)=O)C(=O)N[C@@H](CCCNC(=N)N)C(=O)N[C@@H](CCN)C(=O)N[C@@H](CO)C(=O)N[C@H](CCN)C(=O)N[C@@H](CCCCN)C(=O)N[C@H](C(=O)N[C@@H](CCN)C(=O)N[C@@H](CCCN)C(=O)N[C@@H](Cc2ccc(O)cc2)C(=O)O)CSSC1(C)C [Example 86, Val-Hyp-Ile-Ile-Tyr-Pen-Asn-Arg-Dab-Ser-^DDab-Lys-Cys-Dab-Orn-Tyr] (HELM PEPTIDE1{V.[Hyp].I.I.Y.[Pen].N.R.[Dab].S.[NCC[C@@H](N[*:1])C(=O)[*:2]].K.C.[Dab].[Orn].Y}$PEPTIDE1,PEPTIDE1,6:R3-13:R3$$$V2.0) | 0.25 | 0.125 | 0.0625 | <1
